Experimental data: patent US20220153732A1, “PROTEIN SECRETION INHIBITORS” (KEZAR LIFE SCIENCES, priority 2019, published 2022)
Like-named read-outs stand apart in the source and are kept apart here.

What was measured:
Type in all cases: cell-based
[1] = test system: TNFα-FL/Gaussia Luciferase; assay: Dox Induced TNFα-FL-Gluc Assay; settings: 293FRT/TO cells, read-out: 24 hr Dox Inducible TNFaFLGluc 293FRT/TO: Mean IC50
Outline: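 A stable T-REx cell line carrying doxycycline-inducible TNFα-FL/Gaussia luciferase was plated the day before assay. Compound dilutions in DMSO/media containing doxycycline were then added and incubated at 37° C, 5% CO2.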

[2] = test system: HER3-ss+4aa/Gaussia Luciferase; assay: Dox-Induced Her3-ss-Gluc Assay; settings: 293FRT/TO cells, read-out: 24 hr Dox Inducible Her3(ss + 4)Gluc 293FRT/TO: Mean IC50
Outline: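 Stable T-REx cell line carrying a doxycycline-regulated HER3-ss+4aa/Gaussia luciferase insert, plated the day before assay. Compound dilutions in DMSO/media with doxycycline added, then incubated at 37° C., 5% CO2. Stereoisomer mixtures tested where stereochemistry is not drawn.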

[3] = test system: human multiple myeloma cell line U266B1; assay: U266 Cell Viability Assay; settings: U-266, 48 hr, U266B1 cells, Celltiter-Glo, read-out: 48 hr U266 Viability Celltiter-Glo: Mean EC50
Outline: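 U266B1 myeloma cells treated with compound dilutions in DMSO/media for 48 h at 37 °C, 5% CO2. Viability read by CellTiter-Glo luminescence. Stereochemically undefined structures were tested as stereoisomer mixtures.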

[4] = test system: IL-2-FL/Gaussia Luciferase; assay: Dox Induced IL2-FL-Gluc Assay; settings: 293FRT/TO cells, read-out: 24 hr Dox Inducible IL2FLGIuc 293FRT/TO: Mean IC50
Outline: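 Stable T-REx cell line expressing doxycycline-inducible IL-2-FL/Gaussia luciferase cDNA, plated the day before assay. Compound dilutions in DMSO/media containing doxycycline added and incubated at 37° C., 5% CO2. Unspecified stereochemistry means data refer to a stereoisomer mixture.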

[5] = test system: PD1-ss+10aa/Gaussia Luciferase; assay: Dox-Induced PD1-ss-Gluc Assay; settings: 293FRT/TO cells, read-out: 24 hr Dox Inducible PD1ssGluc 293FRT/TO: Mean IC50
Outline: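 Stable cell line carrying PD1-ss+10aa/Gaussia luciferase cDNA under T-REx (doxycycline-inducible) control, plated the day before assay. Compound dilutions in DMSO/media containing doxycycline added and incubated at 37° C, 5% CO2. Undefined stereocentres: data refer to stereoisomer mixtures.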

[6] = test system: human multiple myeloma cell line NCI-H929; assay: H929 Cell Viability Assay; settings: 48 hr, NCI-H929 cells, Celltiter-Glo, read-out: 48 hr H929 Viability Celltiter-Glo: Mean EC50
Method: Plates were incubated at 37° C., 5% CO2 for 48 hours. After 48 hours, Celltiter-Glo® (Promega) was added to each well and luciferase signal was quantified using Tecan Infinite M1000 Pro for cell viability determination.
For chemical structures that include one or more stereoisomers, but are illustrated without indicating stereochemistry, the assay data refers to a mixture of stereoisomers.

[7] = 24 hr doxycycline induction, Gaussia luciferase signal

Compound | IC50 [1, 7] | IC50 [2, 7] | EC50 [3] | IC50 [4, 7] | IC50 [5, 7] | EC50 [6] | IC50 ([1]; 24 hr, doxycycline-induced) | IC50 ([2]; 24 hr, doxycycline-induced) | IC50 ([4]; 24 hr, doxycycline-induced) | IC50 ([5]; 24 hr, doxycycline-induced)
COc1ccc(/C=C/c2csc(NC(=O)c3cccn3Cc3ccncc3)n2)cc1F [Compound A240, N-(4-(3-fluoro-4-methoxystyryl)thiazol-2-yl)-1-(pyridin-4-ylmethyl)-1H-pyrrole-2-carboxamide] | 7.79 µM | 0.271 µM | > 25 µM | 0.445 µM | 0.055 µM | 11.8 µM |  |  |  | 
CCc1sc(NC(=O)c2cccn2Cc2ccncc2)nc1C [Compound A43] | > 25 µM | 2.21 µM | > 25 µM | 2.67 µM | 0.942 µM | > 25 µM |  |  |  | 
CC(F)(F)c1csc(NC(=O)c2cccn2Cc2ccncc2)n1 [Compound A29, N-(4-(1,1-difluoroethyl)thiazol-2-yl)-1-(pyridin-4-ylmethyl)-1H-pyrrole-2-carboxamide] | 19.6 µM | 1.24 µM | > 25 µM | 0.935 µM | 0.488 µM | > 25 µM |  |  |  | 
CN(C)c1ccc(/C=C/c2csc(NC(=O)c3cccn3Cc3ccncc3)n2)cc1 [Compound A229] | 4.58 µM | 0.568 µM | > 25 µM | 1.05 µM | 0.066 µM | 24.9 µM |  |  |  | 
O=C(Nc1nc(Cc2ccccc2)cs1)c1cccn1Cc1ccncc1 [Compound A17, N-(4-benzylthiazol-2-yl)-1-(pyridin-4-ylmethyl)-1H-pyrrole-2-carboxamide] | 2.23 µM | 0.56 µM | > 25 µM | 0.804 µM | 0.191 µM | 20.8 µM |  |  |  | 
O=C(Nc1nc2c(s1)CCCC2)c1cccn1Cc1ccncc1 [Compound A52] | > 25 µM | 2.83 µM | > 25 µM | 1.95 µM | 1.36 µM | > 25 µM |  |  |  | 
CC(=O)N1CCC(CCCn2cccc2C(=O)Nc2nc(C(C)(C)OC(C)C)cs2)CC1 [Compound A101, 1-(3-(1-acetylpiperidin-4-yl)propyl)-N-(4-(2-isopropoxypropan-2-yl)thiazol-2-yl)-1H-pyrrole-2-carboxamide] | > 25 µM | > 25 µM | > 25 µM | > 25 µM | > 25 µM | > 25 µM |  |  |  | 
CC(C)OC(C)(C)c1csc(NC(=O)c2cccn2CCCc2ccncc2)n1 [Compound A11, N-(4-(2-isopropoxypropan-2-yl)thiazol-2-yl)-1-(3-(pyridin-4-yl)propyl)-1H-pyrrole-2-carboxamide] | 2.39 µM | 0.128 µM | > 25 µM | 0.061 µM | 0.115 µM | 8.69 µM |  |  |  | 
O=C(Nc1nc(C2CC2c2ccccc2)cs1)c1cccn1CCCc1ccncc1 [Compound A215, N-(4-((1R,2R)-2-phenylcyclopropypthiazol-2-yl)-1-(3-(pyridin-4-yl)propyl)-1H-pyrrole-2-carboxamide] | 2.49 µM | 0.72 µM | > 25 µM | 1.25 µM | 0.443 µM | 13.1 µM |  |  |  | 
CC(C)(COc1ccccc1)c1csc(NC(=O)c2cccn2Cc2ccncc2)n1 [Compound A228] | 3.59 µM | 0.73 µM | > 25 µM | 0.933 µM | 0.335 µM | 9.25 µM |  |  |  | 
CC(C)OC(C)(C)c1csc(NC(=O)c2cccn2Cc2cc[n+]([O-])cc2)n1 [Compound A85] | > 25 µM | > 25 µM | > 25 µM | > 25 µM | 7.54 µM | > 25 µM |  |  |  | 

Results, then the compound that gave them:

IC50 [1, 7] | IC50 [2, 7] | EC50 [3] | IC50 [4, 7] | IC50 [5, 7] | EC50 [6] | IC50 ([1]; 24 hr, doxycycline-induced) | IC50 ([2]; 24 hr, doxycycline-induced) | IC50 ([4]; 24 hr, doxycycline-induced) | IC50 ([5]; 24 hr, doxycycline-induced) | Compound
> 25 µM | 5.28 µM | 22.5 µM | 6.72 µM | 0.918 µM | > 25 µM |  |  |  |  | O=C(Nc1nc([C@@H]2CCN(Cc3ccccc3)C2)cs1)c1cccn1Cc1ccncc1 [Compound A291]
0.821 µM | 0.129 µM | > 25 µM | 0.291 µM | 0.052 µM | 7.29 µM |  |  |  |  | O=C(Nc1nc(C2CC(c3ccccc3)C2)cs1)c1cccn1Cc1ccncc1 (stereo not drawn) [Compound A268]
5.22 µM | 0.958 µM | > 25 µM | 1.04 µM | 0.381 µM | 21.5 µM |  |  |  |  | O=C(Nc1nc(C2(OCc3ccccc3)CC2)cs1)c1cccn1Cc1ccncc1 [Compound A263, N-(4-(1-(benzyloxy)cyclopropyl)thiazol-2-yl)-1-(pyridin-4-ylmethyl)-1H-pyrrole-2-carboxamide]
3.61 µM | 0.512 µM | > 25 µM | 0.856 µM | 0.201 µM | 22 µM |  |  |  |  | O=C(Nc1nc([C@@H]2CCN(c3ccccc3)C2)cs1)c1cccn1Cc1ccncc1 [Compound A289]
 |  | > 25 µM |  |  | > 25 µM | > 25 µM | > 25 µM | > 25 µM | > 25 µM | CC(C)OC(C)(C)c1csc(NC(=O)Cc2ccc(Cc3ccncc3)[nH]2)n1 [Compound B12, N-(4-(2-isopropoxypropan-2-yl)thiazol-2-yl)-2-(5-(pyridin-4-ylmethyl)-1H-pyrrol-2-yl)acetamide]
 |  | > 25 µM |  |  | 0.72 µM | 0.1 µM | 0.022 µM | 0.023 µM | 0.011 µM | CO[C@@H]1CCN(c2ccccc2)C1c1csc(NC(=O)c2cccn2Cc2ccncc2)n1 (stereo partly drawn) [Compound A345]
 |  | 18.3 µM |  |  | 17 µM | > 25 µM | > 25 µM | > 25 µM | > 25 µM | CC(C)OC(C)(C)c1csc(NC(=O)c2sccc2-c2ccncc2)n1 [Compound A348]
 |  | > 25 µM |  |  | > 25 µM | > 25 µM | > 25 µM | > 25 µM | > 25 µM | CCN(C(=O)c1cccn1Cc1ccncc1)c1nccs1 [Compound B14]
 |  | > 25 µM |  |  | 11.4 µM | 3.65 µM | 0.632 µM | 0.619 µM | 0.367 µM | CC(C)(/C=C/c1ccccc1)c1csc(NC(=O)c2cccn2Cc2ccncc2)n1 [Compound A293, N-(4-(2-methyl-4-phenylbut-3-en-2-yl)thiazol-2-yl)-1-(pyridin-4-ylmethyl)-1H-pyrrole-2-carboxamide]
1.33 µM | 0.25 µM | 18.1 µM | 0.477 µM | 0.102 µM | 7.21 µM |  |  |  |  | O=C(Nc1nc(C2CCC(c3ccccc3)CC2)cs1)c1cccn1Cc1ccncc1 (stereo not drawn) [Compound A255]
 |  | > 25 µM |  |  | > 25 µM | > 25 µM | > 25 µM | > 25 µM | > 25 µM | CN(C(=O)c1cccn1Cc1ccncc1)c1nccs1 [Compound B13]
 |  | > 25 µM |  |  | 0.901 µM | 0.054 µM | 0.016 µM | 0.021 µM | 0.006 µM | O=C(Nc1nc([C@H]2C[C@@H](OC3CCCCC3)CN2c2ccccc2)cs1)c1cccn1Cc1ccncc1 [Compound A354]
1.51 µM | 0.152 µM | > 25 µM | 0.211 µM | 0.038 µM | > 25 µM |  |  |  |  | O=C(Nc1nc(/C=C/c2ccc(OC3CC3)cc2)cs1)c1cccn1Cc1ccncc1 [Compound A248, N-(4-(4-cyclopropoxystyryl)thiazol-2-yl)-1-(pyridin-4-ylmethyl)-1H-pyrrole-2-carboxamide]
 |  | > 25 µM |  |  | 10.5 µM | 2.42 µM | 0.589 µM | 0.45 µM | 0.328 µM | O=C(Nc1nc([C@H]2CCC[C@@H]2c2ccccc2)cs1)c1cccn1Cc1ccncc1 [Compound A300, N-(4-((1S,2S)-2-phenylcyclopentyl)thiazol-2-yl)-1-(pyridin-4-ylmethyl)-1H-pyrrole-2-carboxamide]
